In BindingDB's records for doi:10.1016/j.bmcl.2004.01.021 (Atherogenics, 2004):
pIC50: −log10 of the molar value.

Biological target: T1, Tumor necrosis factor receptor superfamily member 1A (Homo sapiens, UniProt P19438)
T1 sequence (P19438 whole entry): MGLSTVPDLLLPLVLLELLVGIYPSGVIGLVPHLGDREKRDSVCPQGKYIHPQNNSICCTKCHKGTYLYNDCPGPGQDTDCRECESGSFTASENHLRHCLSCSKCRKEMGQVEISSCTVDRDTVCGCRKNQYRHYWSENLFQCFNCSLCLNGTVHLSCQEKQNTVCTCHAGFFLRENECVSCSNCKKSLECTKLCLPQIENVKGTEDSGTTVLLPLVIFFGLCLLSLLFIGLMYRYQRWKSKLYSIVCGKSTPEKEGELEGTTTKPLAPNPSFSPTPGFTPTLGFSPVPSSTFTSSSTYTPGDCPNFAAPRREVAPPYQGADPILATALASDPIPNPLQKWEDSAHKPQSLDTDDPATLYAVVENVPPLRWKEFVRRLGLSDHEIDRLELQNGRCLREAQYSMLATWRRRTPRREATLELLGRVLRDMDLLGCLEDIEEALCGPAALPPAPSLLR
Assay: ChEBML_224214
From the text: Inhibition of TNF-alpha-induced VCAM-1 expression

Work on COc1ccc(-c2cccs2)cc1/C=C/C(=O)c1ccc(OCc2ccncc2)c(OC)c1 [(E)-1-[3-Methoxy-4-(pyridin-4-ylmethoxy)-phenyl]-3-(2-methoxy-5-thiophen-2-yl-phenyl)-propenone] yielded a pIC50 of 5.40.

COc1ccc(COc2c(OC)cc(C(=O)/C=C/c3cc(OC)c(OC)c(OC)c3)cc2OC)cc1OC [(E)-1-[4-(3,4-Dimethoxy-benzyloxy)-3,5-dimethoxy-phenyl]-3-(3,4,5-trimethoxy-phenyl)-propenone] was tested, and the pIC50 was 5.70.

In the case of COc1ccc(COc2ccc(C(=O)/C=C/c3cc(OC)c(OC)c(OC)c3)cc2OC)cc1OC [(E)-1-[4-(3,4-Dimethoxy-benzyloxy)-3-methoxy-phenyl]-3-(3,4,5-trimethoxy-phenyl)-propenone], the pIC50 was 5.70.

COc1ccc(-c2cccs2)cc1/C=C/C(=O)c1ccc(OCc2ccc(N)cc2)c(OC)c1 [(E)-1-[4-(4-Amino-benzyloxy)-3-methoxy-phenyl]-3-(2-methoxy-5-thiophen-2-yl-phenyl)-propenone] was tested, and the pIC50 was 5.15.

For COc1cc(/C=C/C(=O)c2cc(OC)c(OCc3ccc4c(c3)OCO4)c(OC)c2)cc(OC)c1OC [(E)-1-[4-(Benzo[1,3]dioxol-5-ylmethoxy)-3,5-dimethoxy-phenyl]-3-(3,4,5-trimethoxy-phenyl)-propenone], the pIC50 was 5.52.

COc1cc(/C=C/C(=O)c2cc(OC)c(OCc3ccco3)c(OC)c2)cc(OC)c1OC [(E)-1-[4-(Furan-2-ylmethoxy)-3,5-dimethoxy-phenyl]-3-(3,4,5-trimethoxy-phenyl)-propenone] was tested, and the pIC50 was 5.52.

COc1cc(OC)c(-c2cccs2)cc1/C=C/C(=O)c1ccc(OC)c(OC)c1OC [(E)-3-(2,4-Dimethoxy-5-thiophen-2-yl-phenyl)-1-(2,3,4-trimethoxy-phenyl)-propenone] showed a pIC50 of 5.70.

COc1cc(OC)c(C(=O)/C=C/c2cc(-c3cccs3)ccc2OC)c(OC)c1 [(E)-3-(2-Methoxy-5-thiophen-2-yl-phenyl)-1-(2,4,6-trimethoxy-phenyl)-propenone] was tested, and the pIC50 was 5.52.

COc1ccc(-c2cccs2)cc1/C=C/C(=O)c1cc(OC)c(OC)c(OC)c1 [(E)-3-(2-Methoxy-5-thiophen-2-yl-phenyl)-1-(3,4,5-trimethoxy-phenyl)-propenone] was tested, and the pIC50 was 5.52.

Work on COc1ccc(-c2cccs2)cc1/C=C/C(=O)c1ccccc1 [(E)-3-(2-Methoxy-5-thiophen-2-yl-phenyl)-1-phenyl-propenone] yielded a pIC50 of 5.30.

With COc1cc(-c2cccs2)ccc1C(=O)/C=C/c1ccc(F)c(F)c1 [(E)-3-(3,4-Difluoro-phenyl)-1-(2-methoxy-4-thiophen-2-yl-phenyl)-propenone] the pIC50 was 5.70.

Work on COc1ccc(C(=O)/C=C/c2ccc(OC)c(OC)c2)cc1 [(E)-3-(3,4-Dimethoxy-phenyl)-1-(4-methoxy-phenyl)-propenone] yielded a pIC50 of 4.82.

CCOc1cc(OCC)c(C(=O)/C=C/c2cc(Br)c(OC)c(OC)c2)cc1OCC [(E)-3-(3-Bromo-4,5-dimethoxy-phenyl)-1-(2,4,5-triethoxy-phenyl)-propenone] gave a pIC50 of 4.82.

With COc1cc(OC)c(C(=O)/C=C/c2cc(Br)c(OC)c(OC)c2)cc1OC [(E)-3-(3-Bromo-4,5-dimethoxy-phenyl)-1-(2,4,5-trimethoxy-phenyl)-propenone] the pIC50 was 5.70.

COc1cc(/C=C/C(=O)c2cc(OC)c(OC)c(OC)c2)cc(Br)c1OC [(E)-3-(3-Bromo-4,5-dimethoxy-phenyl)-1-(3,4,5-trimethoxy-phenyl)-propenone] gave a pIC50 of 5.40.

Work on CCOc1ccc(/C=C/C(=O)c2cc(-c3cccs3)ccc2OC)cc1F [(E)-3-(4-Ethoxy-3-fluoro-phenyl)-1-(2-methoxy-5-thiophen-2-yl-phenyl)-propenone] yielded a pIC50 of 5.40.

In the case of COc1cc(C(=O)/C=C/c2ccc(-c3cccs3)cc2)cc(OC)c1OC [(E)-3-(4-Thiophen-2-yl-phenyl)-1-(3,4,5-trimethoxy-phenyl)-propenone], the pIC50 was 5.22.

COc1cc(OC)c(-c2cc3ccccc3s2)cc1/C=C/C(=O)c1ccc(OC)c(OC)c1OC [(E)-3-(5-Benzo[b]thiophen-2-yl-2,4-dimethoxy-phenyl)-1-(2,3,4-trimethoxy-phenyl)-propenone] was tested, and the pIC50 was 5.10.

With COc1cc(OC)c(-c2cc3ccccc3s2)cc1/C=C/C(=O)c1cc(OC)c(OC)c(OC)c1 [(E)-3-(5-Benzo[b]thiophen-2-yl-2,4-dimethoxy-phenyl)-1-(3,4,5-trimethoxy-phenyl)-propenone] the pIC50 was 5.30.

In the case of COc1cc(OC)c(-c2cc3ccccc3s2)cc1/C=C/C(=O)c1ccc(OC)c(OC)c1 [(E)-3-(5-Benzo[b]thiophen-2-yl-2,4-dimethoxy-phenyl)-1-(3,4-dimethoxy-phenyl)-propenone], the pIC50 was 4.96.

COc1cc(OC)c(-c2cc3ccccc3s2)cc1/C=C/C(=O)c1cc(OC)c(OCC2CC2)c(OC)c1 [(E)-3-(5-Benzo[b]thiophen-2-yl-2,4-dimethoxy-phenyl)-1-(4-cyclopropylmethoxy-3,5-dimethoxy-phenyl)-propenone] was tested, and the pIC50 was under 4.30.

COc1cc(OC)c(-c2cc3ccccc3s2)cc1/C=C/C(=O)c1cc(OC)c(O)c(OC)c1 [(E)-3-(5-Benzo[b]thiophen-2-yl-2,4-dimethoxy-phenyl)-1-(4-hydroxy-3,5-dimethoxy-phenyl)-propenone] showed a pIC50 of 6.00.

Molecule COc1cc(OC)c(-c2cc3ccccc3s2)cc1/C=C/C(=O)c1ccc(NC2OC(CO)C(O)C(O)C2O)cc1 (stereo unspecified) [(E)-3-(5-Benzo[b]thiophen-2-yl-2,4-dimethoxy-phenyl)-1-[4-(3,4,5-trihydroxy-6-hydroxymethyl-tetrahydro-pyran-2-ylamino)-phenyl]-propenone] has a pIC50 of 4.77.

COc1ccc(-c2cc3ccccc3s2)cc1/C=C/C(=O)c1cc(OC)c(OC)c(OC)c1 [(E)-3-(5-Benzo[b]thiophen-2-yl-2-methoxy-phenyl)-1-(3,4,5-trimethoxy-phenyl)-propenone] gave a pIC50 of 5.70.

COc1ccc(-c2cc3ccccc3s2)cc1/C=C/C(=O)c1ccc(OC)c(OC)c1 [(E)-3-(5-Benzo[b]thiophen-2-yl-2-methoxy-phenyl)-1-(3,4-dimethoxy-phenyl)-propenone] showed a pIC50 of 5.70.

COc1ccc(C(=O)/C=C/c2cc(-c3cc4ccccc4s3)ccc2OC)cc1 [(E)-3-(5-Benzo[b]thiophen-2-yl-2-methoxy-phenyl)-1-(4-methoxy-phenyl)-propenone] was tested, and the pIC50 was 5.52.

COc1cc(OC)c(/C=C/C(=O)c2cc(OC)c(OC)c(OC)c2)cc1Br [(E)-3-(5-Bromo-2,4-dimethoxy-phenyl)-1-(3,4,5-trimethoxy-phenyl)-propenone] gave a pIC50 of 5.70.

COc1ccc(Br)cc1/C=C/C(=O)c1cc(OC)c(OC)c(OC)c1 [(E)-3-(5-Bromo-2-methoxy-phenyl)-1-(3,4,5-trimethoxy-phenyl)-propenone] gave a pIC50 of 6.00.

COc1ccc(-c2cc(C)cs2)cc1/C=C/C(=O)c1cc(OC)c(OC)c(OC)c1 [(E)-3-[2-Methoxy-5-(4-methyl-thiophen-2-yl)-phenyl]-1-(3,4,5-trimethoxy-phenyl)-propenone] showed a pIC50 of 5.70.

For COc1ccc(-c2ccc(C)s2)cc1/C=C/C(=O)c1cc(OC)c(OC)c(OC)c1 [(E)-3-[2-Methoxy-5-(5-methyl-thiophen-2-yl)-phenyl]-1-(3,4,5-trimethoxy-phenyl)-propenone], the pIC50 was 5.70.

COc1cc(C(=O)C=Cc2cc(OC)c(OC)c(-c3ccc(C(C)=O)s3)c2)cc(OC)c1OC [(E)-3-[3-(5-Acetyl-thiophen-2-yl)-4,5-dimethoxy-phenyl]-1-(3,4,5-trimethoxy-phenyl)-propenone] showed a pIC50 of 5.52.

Molecule O=C(/C=C/c1ccccc1)c1ccccc1 [Chalcone, 13] has a pIC50 of 4.64.

COc1cc(OCC(=O)O)c(/C=C/C(=O)c2ccccc2)cc1-c1cc2ccccc2s1 [[4-Benzo[b]thiophen-2-yl-5-methoxy-2-((E)-3-oxo-3-phenyl-propenyl)-phenoxy]-acetic acid] gave a pIC50 of 6.00.

COc1ccc(-c2cccs2)cc1/C=C/C(=O)c1cc(OC)c(OCC(=O)O)c(OC)c1 [{2,6-Dimethoxy-4-[(E)-3-(2-methoxy-5-thiophen-2-yl-phenyl)-acryloyl]-phenoxy}-acetic acid] was tested, and the pIC50 was 6.00.

COc1cc(C(=O)/C=C/c2cc(OC)c(OC)c(-c3cccs3)c2)cc(OC)c1OCC(=O)O [{4-[(E)-3-(3,4-Dimethoxy-5-thiophen-2-yl-phenyl)-acryloyl]-2,6-dimethoxy-phenoxy}-acetic acid] was tested, and the pIC50 was 6.00.

Molecule COc1cc(OC)c(-c2cc3ccccc3s2)cc1/C=C/C(=O)c1ccc(SCC(=O)O)cc1 [{4-[(E)-3-(5-Benzo[b]thiophen-2-yl-2,4-dimethoxy-phenyl)-acryloyl]-phenylsulfanyl}-acetic acid] has a pIC50 of 6.00.
